Test results: patent US20260028352A1, “MACROCYCLIC IMIDAZO [1,2-B] PYRIDAZINE DERIVATIVE, PREPARATION METHOD THEREFOR, AND USE THEREOF” (SUZHOU LANGRUI BIOPHARMACEUTICAL CO., LTD., priority 2022, published 2026)
pIC50: −log10 of the molar value.

test system: Ba/F3-TPM3-NTRK1-G667C cells; experiment: Growth inhibition of Ba/F3-TPM3-NTRK1-G667C cells (Cell Titer-Glo); type: cell-based; settings: 72 hours, CTG; read-out: inhibitory activity IC50 Ba/F3-TPM3-NTRK1-G667C
Method: Then the solutions were subjected to a gradient dilution with DMSO: a clean, sterile V-bottom 96-well microplate was placed in the biological safety cabinet. First, 4 μL of DMSO was added to well B2 and 10 μL of DMSO was added to wells B3-B11 respectively; Next, 6 μL of the 10 mM solution was added to well B2. The microplate was pipetted up and down 10 times for mixing. […] Mixing was performed by pipetting up and down 10 times. The solution was diluted in order until well B10. only DMSO was added to well B11 (no compound).
6× Compound Solution Preparation (6-fold dilution, × represents dilution factor): (Initial final concentration: 10 μM), a clean, sterile V-bottom 96-well microplate was placed in the biological safety cabinet. 99 μL of cell culture medium was added to each well from B2 to G11. By using a 12-channel pipettor, 1 μL of the compound solution prepared in the previous step was added into the corresponding wells. The solutions were pipetted up and down 10 times to mix the solutions. The highest concentration of compound in this step was 60 μM.
Treatment of Cells: the above-prepared cell culture plate was taken out of the incubator. 20 μL of compound solution from each well was added to the corresponding cell culture wells. The lowest pipetting speed was used and touching the bottom of the plate was avoided. The culture plate was gently shaked to mix the compound solution, then the plate was returned to the incubator for further culture for 72 hours.
The highest treatment concentration of the compound was 10 μM. After 72 hours of treatment, the Cell Titer-Glo (CTG) assay was performed. First, the cell culture plate was removed from the CO2 incubator and allowed to stand at room temperature for 30 minutes to ensure uniform temperature of the plate. The pre-prepared Cell Titer-Glo reagent (following the manufacturer's instructions) was taken and allowed to stand at room temperature to thaw. 60 μL of Cell Titer-Glo reagent was added to each well containing cells. The cells were incubated on a horizontal shaker in a dark place at 225 rpm for 1 hour at room temperature. Then, a Tecan Spark microplate reader was used to read the plate using chemiluminescence according to the manufacturer's instructions.

SMILES	pIC50
Fc1ccc2c(c1)[C@H]1CCCN1c1ccc3ncc(n3n1)-c1cc(ccn1)[C@@H]1CCC[C@H]1O2 [Example I-46, (8aS,11aR,16bR,E)-15-fluoro-8a,10,11,11a,16b,17,18,19-octahydro-9H-1,21-etheno-4,8-(metheno)benzo[b]cyclopenta[o]imidazo[1,5-h]pyrrolo[2,1-d][1]oxa[5,7,8,11]tetraazacyclohexadecine]	> 7.00
Fc1ccc2c(c1)C1(CC1)Nc1ccc3ncc(n3n1)-c1cc(ccn1)CO2 [Example I-47, (E)-4′-fluorospiro[cyclopropane-1,6′-4-oxa-7-aza-1(3,6)-imidazo[1,2-b]pyridazina-2(2,4)-pyridina-5(1,2)-benzenacycloheptaphane]]	> 7.00
CC1(C)Nc2ccc3ncc(n3n2)-c2cc(ccn2)COc2ccc(F)cc21 [Example I-48, (E)-5^4-fluoro-6,6-dimethyl-4-oxa-7-aza-1(3,6)-imidazo[1,2-b]pyridazina-2(2,4)-pyridina-5(1,2)-benzenacycloheptaphane]	> 7.00
Fc1cnc2c(c1)[C@H]1CCCN1c1ccc3ncc(n3n1)-c1cc(ccn1)CO2 [Example I-51, (14bR,E)-13-fluoro-14b,15,16,17-tetrahydro-9H-1,19-etheno-4,8-(metheno)imidazo[1,5-h]pyrido[2,3-b]pyrrolo[2,1-d][1]oxa[5,7,8,11]tetraazacyclopentadecine]	> 7.00
Fc1ccc2c(c1)[C@H]1CCCN1c1ccc3ncc(n3n1)-c1cc(ccn1)CCO2 [Example I-53, (3^2R,E)-4^5-fluoro-5-oxa-2(3,6)-imidazo[1,2-b]pyridazina-1(2,4)-pyridina-3(1,2)-pyrrolidina-4(1,2)-benzenacycloheptaphane]	> 7.00
Fc1cnc2c(c1)[C@H]1CCCN1c1ccc3ncc(n3n1)-c1cc(ccn1)CCO2 [Example I-55, (3^2R,E)-4^5-fluoro-5-oxa-2(3,6)-imidazo[1,2-b]pyridazina-1(2,4),4(3,2)-dipyridina-3(1,2)-pyrrolidinacycloheptaphane]	> 7.00
Fc1ccc2c(c1)[C@H]1CCCN1c1ccc3ncc(n3n1)-c1cc(ncn1)CO2 [Example I-57, (14bR,E)-13-fluoro-14b,15,16,17-tetrahydro-9H-1,19-etheno-4,8-(metheno)benzo[n]imidazo[5,1-h]pyrrolo[1,2-l][1]oxa[4,6,9,10,12]pentaazacyclopentadecine]	> 7.00
Fc1cnc2c(c1)[C@H]1CCCN1c1ccc3ncc(n3n1)-c1cc(ncn1)CO2 [Example I-59, (14bR,E)-13-fluoro-14b,15,16,17-tetrahydro-9H-1,19-etheno-4,8-(metheno)imidazo[5,1-h]pyrido[3,2-n]pyrrolo[1,2-l][1]oxa[4,6,9,10,12]pentaazacyclopentadecine]	> 7.00
Fc1ccc2c(c1)[C@H]1CCCN1c1ccc3ncc(n3n1)-c1nccc(n1)CO2 [Example I-61, (14bR,E)-13-fluoro-14b,15,16,17-tetrahydro-9H-4,8-(azeno)-1,19-etheno benzo[b]imidazo[1,5-h]pyrrolo[2,1-d][1]oxa[5,7,8,11]tetraazacyclopentadecine]	> 7.00
Fc1cnc2c(c1)[C@H]1CCCN1c1ccc3ncc(n3n1)-c1nccc(n1)CO2 [Example I-63, (14bR,E)-13-fluoro-14b,15,16,17-tetrahydro-9H-4,8-(azeno)-1,19-etheno imidazo[1,5-h]pyrido[2,3-b]pyrrolo[2,1-d][1]oxa[5,7,8,11]tetraazacyclopentadecine]	> 7.00

The next lines start with the values.

pIC50	SMILES
> 7.00	CC1Nc2ccc3ncc(n3n2)-c2cc(ccn2)OCc2ccc(F)cc21 (stereo not drawn) [Example I-13, (E)-5^4-fluoro-6-methyl-3-oxa-7-aza-1(3,6)-imidazo[1,2-b]pyridazina-2(2,4)-pyridina-5(1,2)-benzenacycloheptaphane]
> 7.00	C[C@@H]1Cc2ccnc(c2)-c2cnc3ccc(nn23)N[C@H](C)c2cc(F)ccc2O1 [Example I-34, (4R,7R,E)-5^5-fluoro-4,7-dimethyl-6-oxa-3-aza-2(3,6)-imidazo[1,2-b]pyridazina-1(2,4)-pyridina-5(1,2)-benzenacyclooctaphane]
> 7.00	C[C@@H]1Cc2cc(ncn2)-c2cnc3ccc(nn23)N[C@H](C)c2cc(F)ccc2O1 [Example I-35, (4R,7R,E)-5^5-fluoro-4,7-dimethyl-6-oxa-3-aza-2(3,6)-imidazo[1,2-b]pyridazina-1(4,6)-pyrimidina-5(1,2)-benzenacyclooctaphane]
> 7.00	C[C@@H]1Cc2ccnc(c2)-c2cnc3ccc(nn23)N[C@H](C)c2cc(F)cnc2O1 [Example I-36, (4R,7R,E)-5^5-fluoro-4,7-dimethyl-6-oxa-3-aza-2(3,6)-imidazo[1,2-b]pyridazina-1(2,4), 5(3,2)-dipyridinacyclooctaphane]
> 7.00	C[C@@H]1Cc2ccnc(c2)-c2cnc3ccc(nn23)N2CCC[C@@H]2c2cc(F)ccc2O1 [Example I-37, (3^2R,6R,E)-4^5-fluoro-6-methyl-5-oxa-2(3,6)-imidazo[1,2-b]pyridazina-1(2,4)-pyridina-3(1,2)-pyrrolidina-4(1,2)-benzenacycloheptaphane]
> 7.00	C[C@@H]1Cc2ccnc(c2)-c2cnc3ccc(nn23)N2CCC[C@@H]2c2cc(F)cnc2O1 [Example I-38, (3^2R,6R,E)-4^5-fluoro-6-methyl-5-oxa-2(3,6)-imidazo[1,2-b]pyridazina-1(2,4),4(3,2)-dipyridina-3(1,2)-pyrrolidinacycloheptaphane]
> 7.00	C[C@H]1Nc2ccc3ncc(n3n2)-c2cc(ccn2)N2CC[C@H](C2)Oc2ccc(F)cc21 [Example I-41, (3^3R,6R,E)-5^4-fluoro-6-methyl-4-oxa-7-aza-1(3,6)-imidazo[1,2-b]pyridazina-2(2,4)-pyridina-3(1,3)-pyrrolidina-5(1,2)-benzenacycloheptaphane]
> 7.00	C[C@H]1Nc2ccc3ncc(n3n2)-c2cc(ccn2)N2CC[C@@H](C2)Oc2ccc(F)cc21 [Example I-42, (3^3S,6R,E)-5^4-fluoro-6-methyl-4-oxa-7-aza-1(3,6)-imidazo[1,2-b]pyridazina-2(2,4)-pyridina-3(1,3)-pyrrolidina-5(1,2)-benzenacycloheptaphane]
> 7.00	C[C@H]1Nc2ccc3ncc(n3n2)-c2cc(ccn2)N2CCC[C@H](C2)Oc2ccc(F)cc21 [Example I-43, (3^3R,6R,E)-5^4-fluoro-6-methyl-4-oxa-7-aza-1(3,6)-imidazo[1,2-b]pyridazina-2(2,4)-pyridina-3(1,3)-piperidina-5(1,2)-benzenacycloheptaphane]
> 7.00	C[C@H]1Nc2ccc3ncc(n3n2)-c2cc(ccn2)N2CCC[C@@H](C2)Oc2ccc(F)cc21 [Example I-44, (3^3S,6R,E)-5^4-fluoro-6-methyl-4-oxa-7-aza-1(3,6)-imidazo[1,2-b]pyridazina-2(2,4)-pyridina-3(1,3)-piperidina-5(1,2)-benzenacycloheptaphane]
> 7.00	Fc1ccc2c(c1)[C@H]1CCCN1c1ccc3ncc(n3n1)-c1cc(ccn1)[C@H]1CCC[C@H]1O2 [Example I-45, (8aR,11aR,16bR,E)-15-fluoro-8a,10,11,11a,16b,17,18,19-octahydro-9H-1,21-etheno-4,8-(metheno)benzo[b]cyclopenta[o]imidazo[1,5-h]pyrrolo[2,1-d][1]oxa[5,7,8,11]tetraazacyclohexadecine]
